Where two headings read alike, the source gives them in different places.
Experiments:
[1] = test system: phosphorylation of MAPKAP-2 in HUT 78 cells; assay: p38 MAP Kinase cellular assay: inhibition of phosphorylation of MAPKAP2 in HUT 78 cells; format: cell-based; conditions: Table 2
Description: (§1) p38 MAP Kinase Cellular Assay: Inhibition of Phosphorylation of MAPKAP2
(§2) U937 or HUT78 cells were plated in RPMI 1640, and were incubated at 37° C., 5% CO2 for 18 hours. 10 mM stocks of compounds were diluted media/0.1% DMSO to give a log or semi-log dilution series. The wells for ‘no treatment’ and ‘anisomycin’ were treated with 0.1% DMSO only. The cells were incubated at 37° C., 5% CO2 for a further 4 hours. Anisomycin was added to all wells except ‘no treatment’ at a final concentration of 10 μM. The cells were incubated at 37° C., 5% CO2 for 30 minutes before harvest. Plates were stood on ice whilst harvesting, and all following steps were carried out at 4° C. The cells were pelleted at 1000 rpm for 10 minutes at 4° C., the media aspirated, and the pellet washed with cold PBS. The pellets were lysed in 120 μl of SDS lysis buffer (62.5 mM Tris, pH 6.8, 2% SDS, 10% glycerol, 50 mM DTT, with protease inhibitors and phosphatase inhibitors added according to the manufacturers' recommendations). After 30 minutes on ice, the samples were sonicated for 5 seconds before centrifugation at 13,000 rpm 4° C. for 10 minutes to remove cell debris. 10 μl of the resulting gel samples were loaded per lane on NOVEX 4-12% Bis-Tris MOPS gels. Membranes from western transfer of gels were blotted with anti-phospho MAPKAP2, anti-phospho HSP27 and anti GAPDH according to the manufacturers' Instructions. Signal was visualised using HRP-Hnked anti-rabbit or anti-mouse antibodies, ECL reagent and ECL film. IC50 values for the various compounds were visualised from the resulting photographic images, using both band-shift and signal intensity.

U937 cells = assay: Cell accumulation assay in U937 cells; format: in vitro ADME; conditions: U937 versus HUT 78; result in words
Description: Cells (8×10^4/mL) were incubated at 37° C. in culture medium containing 6 μM compound in a 5% (v/v) CO2-humidified atmosphere. Incubations were terminated after 6 h by centrifugation of 25 mL aliquots of the cell suspension at 300 g for 5 minutes at 4° C. 0.2 mL samples of the culture media supernatants were added to 4 volumes of acetonitrile (Sigma-Aldrich). After decanting the supernatant, the residual cell pellet (2×10^6 cells) was extracted into 1 mL of acetonitrile. Samples were then analysed for the ester and acid metabolite at room temperature by LC/MS/MS (Sciex API3000). Chromatography was based on a MeCN (75×21 mm) column with a 5-95% (v/v) acetonitrile, 0.1% (v/v) formic acid mobile phase. For the zero time samples, the cell suspension was chilled and centrifuged as soon as the ester had been added and then extracted into acetonitrile as described. Levels in cells are expressed as ng/mL.

[2] = test system: phosphorylation of MAPKAP-2 in U937 cells; assay: p38 MAP Kinase cellular assay: inhibition of phosphorylation of MAPKAP2 in U937 cells; format: cell-based; conditions: for IC50: Homo sapiens, U-937
Description: as §1, §2

[3] = test system: cell lysate from U937 cells; assay: Broken cell carboxylesterase assay (U937 cell extract); format: in vitro ADME; conditions: ester 2.5 μM
Description: Broken Cell Carboxylesterase Assay
Any given compound of the present invention wherein ester conjugate according to the invention may be tested to determine whether it meets the requirement that it be hydrolysed by intracellular esterases, by testing in the following assay.
Preparation of Cell Extract
U937 or HCT 116 tumour cells (˜10^9) were washed in 4 volumes of Dulbeccos PBS (˜1 liter) and pelleted at 525 g for 10 min at 4° C. This was repeated twice and the final cell pellet was re-suspended in 35 mL of cold homogenising buffer (Trizma 10 mM, NaCl 130 mM, CaCl2 0.5 mM pH 7.0 at 25° C.). Homogenates were prepared by nitrogen cavitation (700 psi for 50 min at 4° C.). The homogenate was kept on ice and supplemented with a cocktail of inhibitors at final concentrations of: • Leupeptin 1 μM • Aprotinin 0.1 μM • E64 8 μM • Pepstatin 1.5 μM • Bestatin 162 μM • Chymostatin 33 μM
After clarification of the cell homogenate by centrifugation at 525 g for 10 min, the resulting supernatant was used as a source of esterase activity and was stored at −80° C. until required. […]
Hydrolysis of esters to the corresponding carboxylic acids can be measured using the cell extract, prepared as above. […] After centrifugation at 12000 g for 5 min, samples were analysed for the ester and its corresponding carboxylic acid at room temperature by LCMS (Sciex API 3000, HP1100 binary pump, CTC PAL). […]

p38 MAP Kinase α = target: T1, p38 MAP Kinase α (Homo sapiens, UniProt Q16539); assay: p38 MAP Kinase enzyme assay; format: biochemical; conditions: Table 1 (biology); compound as such, Ester for Example 1; read-out: Inhibition of P38 (IC50 nM)
T1 construct: purchased Upstate (Dundee UK)
Description: p38 MAP Kinase Enzyme Assay
The ability of compounds to inhibit p38 MAPα Kinase activity was measured in an assay performed by Upstate (Dundee UK). In a final reaction volume of 25 μL, p38 MAP Kinase α (5-10 mU) is incubated with 25 mM Tris pH 7.5, 0.02 mM EGTA, 0.33 mg/mL myelin basic protein, 10 mM MgAcetate and [γ-^33P-ATP](specific activity approx. 500 cpm/pmol, concentration as required). The reaction is initiated by the addition of the MgATP mix. After incubation for 40 minutes at room temperature, the reaction is stopped by the addition of 5 μL of a 3% phosphoric acid solution. 10 μL of the reaction is then spotted onto a P30 filtermat and washed three times for 5 minutes in 75 mM phosphoric acid and once in methanol prior to drying and scintillation counting.
Duplicate data points are generated from a 1/3 log dilution series of a stock solution in DMSO. Nine dilutions steps are made from a top concentration of […], and a ‘no compound’ blank is included. The standard radiometric filter-binding assay is performed at an ATP concentration at, or close to, the Km. Data from scintillation counts are collected and subjected to free-fit analysis by Prism software. From the curve generated, the concentration giving 50% inhibition is determined and reported.

T1 sequence (Q16539 whole entry): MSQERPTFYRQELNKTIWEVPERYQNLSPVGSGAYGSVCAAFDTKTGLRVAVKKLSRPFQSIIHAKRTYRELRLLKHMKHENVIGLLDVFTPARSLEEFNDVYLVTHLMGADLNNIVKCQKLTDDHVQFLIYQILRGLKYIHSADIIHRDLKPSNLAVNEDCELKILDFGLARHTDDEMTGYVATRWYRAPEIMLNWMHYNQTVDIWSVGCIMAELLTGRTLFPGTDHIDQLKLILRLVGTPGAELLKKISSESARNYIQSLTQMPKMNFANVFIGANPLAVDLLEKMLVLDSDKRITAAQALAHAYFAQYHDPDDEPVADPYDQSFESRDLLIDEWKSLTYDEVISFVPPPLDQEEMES

SMILES: CC(C)(NCCc1ccc(-n2c(N)c(C(=O)c3ccc(F)cc3F)ccc2=O)cc1)C(=O)OC1CCCC1 [Example 1]
- IC50 ([1]; Homo sapiens, HuT78, HUT 78 non-monocyte cell line): 1000 nM
- Ratio IC50s in HUT 78 to U937 cells ([1]; MAPKAP-2 phosphorylation IC50s): 100
- accumulation in monocytic versus non-monocytic cell line (U937 cells): only accumulates in the monocytic cell line
- IC50 ([2]; Table 1 (biology), U937 cells, read-out: Inhibition of phosphorylation of MAPKAP-2 in U937 cells (IC50)): 10 nM
- IC50 ([2]; Table 2, U937 monocyte cell line, read-out: Inhibition of phosphorylation of MAPKAP-2 in U937 cells (IC50, nM) (monocyte cell line)): 10 nM
- Ratio cell IC50s to enzyme IC50 ([2]; U937 MAPKAP-2 IC50 to P38 enzyme IC50): 0.2
- potency in monocytic versus non monocytic cell lines (MAPKAP-2 phosphorylation) ([2]; U937 versus HUT 78): 100 times
- potency in the p38 cellular assay compared with the parent compound ([2]; versus Compound I): significantly more potent than the parent compound
- Cleavage by cell lysate from U937 cells [3]: 165 pg/mL/min
- IC50 (p38 MAP Kinase α): 50 nM

— patent US9636409B2, “Enzyme and receptor modulation using covalent conjugates of alpha,alpha-disubstituted glycine esters” (GlaxoSmithKline Intellectual Property Development Limited, priority 2008, dated 2017)
